# Structures can show the parent of a compound that is named as a salt.
# Target: T1, proton pump (H+/K+-ATPase) (Sus scrofa, UniProt P19156)
# T1 construct: Gastric vesicles were prepared from hog stomach via centrifugal separation; from tissue; host or cells: hog stomach (gastric vesicles, method of Rabon et al. 1988)
# Test: Measurement of inhibitory effects on proton pump (H+/K+-ATPase) activities
# Format: biochemical
# Details: hog gastric vesicles, K+-specific H+/K+-ATPase activity, Tris-HCl buffer pH 7.4, 37° C. for 40 minutes, malachite green Pi readout
# Summary of the method: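 Hog gastric vesicles in 60 mmol/l Tris-HCl pH 7.4 with 0.5% DMSO were treated with compounds at room temperature; reaction was started with 10 μl of 10 mmol/l ATP stock. Released Pi was read at 570 nm, K+-specific activity taken as the ±K+ difference. IC50 from 4-parameter logistic fit.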
# T1 sequence (P19156 whole entry): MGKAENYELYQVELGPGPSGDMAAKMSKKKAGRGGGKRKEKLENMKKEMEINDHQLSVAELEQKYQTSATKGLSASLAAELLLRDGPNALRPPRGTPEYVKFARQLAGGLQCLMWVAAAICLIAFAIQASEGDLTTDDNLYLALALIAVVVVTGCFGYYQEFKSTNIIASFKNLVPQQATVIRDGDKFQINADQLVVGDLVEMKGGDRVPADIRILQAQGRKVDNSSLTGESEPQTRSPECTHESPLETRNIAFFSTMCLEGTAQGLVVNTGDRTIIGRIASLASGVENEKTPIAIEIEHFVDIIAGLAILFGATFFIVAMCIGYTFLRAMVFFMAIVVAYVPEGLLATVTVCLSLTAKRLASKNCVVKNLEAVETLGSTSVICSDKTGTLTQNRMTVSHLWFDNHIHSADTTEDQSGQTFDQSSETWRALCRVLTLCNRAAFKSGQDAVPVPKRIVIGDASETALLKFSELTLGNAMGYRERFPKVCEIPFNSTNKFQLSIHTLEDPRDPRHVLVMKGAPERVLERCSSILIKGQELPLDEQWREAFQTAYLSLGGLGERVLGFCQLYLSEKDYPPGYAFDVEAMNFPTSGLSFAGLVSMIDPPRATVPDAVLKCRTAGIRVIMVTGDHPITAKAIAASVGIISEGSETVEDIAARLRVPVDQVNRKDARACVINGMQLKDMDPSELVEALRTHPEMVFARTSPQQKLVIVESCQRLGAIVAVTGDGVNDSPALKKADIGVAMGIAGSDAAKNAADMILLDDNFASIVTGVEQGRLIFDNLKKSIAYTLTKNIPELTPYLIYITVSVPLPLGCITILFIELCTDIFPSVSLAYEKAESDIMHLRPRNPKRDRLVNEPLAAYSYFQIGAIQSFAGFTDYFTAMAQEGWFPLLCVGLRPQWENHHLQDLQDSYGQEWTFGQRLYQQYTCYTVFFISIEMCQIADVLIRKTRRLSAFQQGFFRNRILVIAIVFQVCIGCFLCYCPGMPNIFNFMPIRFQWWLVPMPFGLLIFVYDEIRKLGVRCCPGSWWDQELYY
# T1 sequence (P18434 whole entry partner): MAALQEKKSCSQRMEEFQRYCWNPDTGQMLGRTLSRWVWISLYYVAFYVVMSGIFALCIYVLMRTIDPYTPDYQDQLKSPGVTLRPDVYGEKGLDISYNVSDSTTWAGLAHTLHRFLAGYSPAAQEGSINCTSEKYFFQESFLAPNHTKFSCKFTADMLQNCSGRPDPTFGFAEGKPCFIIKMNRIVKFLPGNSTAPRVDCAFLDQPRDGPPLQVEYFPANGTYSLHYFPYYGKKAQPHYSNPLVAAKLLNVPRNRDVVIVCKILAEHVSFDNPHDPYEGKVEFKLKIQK
row,Compound,IC50 [nM]
1,"CNCc1cn(S(=O)(=O)c2cccnc2)c2cc(Nc3ncccc3Cl)ccc12 [Example 100, N-(3-chloropyridin-2-yl)-3-((methylamino)methyl)-1-(pyridin-3-ylsulfonyl)-1H-indol-6-amine hydrochloride]",800
2,"CNCc1cn(S(=O)(=O)c2cccnc2)c2cc(Nc3ncccc3C(F)(F)F)ccc12 [Example 101, 3-((methylamino)methyl)-1-(pyridin-3-ylsulfonyl)-N-(3-(trifluoromethyl)pyridin-2-yl)-1H-indol-6-amine hydrochloride]",2200
3,"CNCc1cn(S(=O)(=O)c2cccnc2)c2cc(Nc3ncccc3Br)ccc12 [Example 102, N-(3-bromopyridin-2-yl)-3-((methylamino)methyl)-1-(pyridin-3-ylsulfonyl)-1H-indol-6-amine hydrochloride]",2520
4,"CNCc1cn(S(=O)(=O)c2cccnc2)c2cc(Nc3cccnc3C)ccc12 [Example 105, 3-((methylamino)methyl)-N-(2-methylpyridin-3-yl)-1-(pyridin-3-ylsulfonyl)-1H-indol-6-amine hydrochloride]",880
5,"CNCc1cn(S(=O)(=O)c2cccnc2)c2cc(Nc3cccnc3F)ccc12 [Example 106, N-(2-fluoropyridin-3-yl)-3-((methylamino)methyl)-1-(pyridin-3-ylsulfonyl)-1H-indol-6-amine hydrochloride]",3380
6,"CNCc1cn(S(=O)(=O)c2cccnc2)c2cc(Nc3cccnc3Cl)ccc12 [Example 107, N-(2-chloropyridin-3-yl)-3-((methylamino)methyl)-1-(pyridin-3-ylsulfonyl)-1H-indol-6-amine hydrochloride]",480
7,"CNCc1cn(S(=O)(=O)c2cccnc2)c2cc(Nc3cccnc3C(F)(F)F)ccc12 [Example 109, 3-((methylamino)methyl)-1-(pyridin-3-ylsulfonyl)-N-(2-(trifluoromethyl)pyridin-3-yl)-1H-indol-6-amine hydrochloride]",1980
8,"CNCc1cn(S(=O)(=O)c2cccnc2)c2cc(Nc3cncc(Br)c3)ccc12 [Example 110, N-(5-bromopyridin-3-yl)-3-((methylamino)methyl)-1-(pyridin-3-ylsulfonyl)-1H-indol-6-amine hydrochloride]",5040
9,"CNCc1cn(S(=O)(=O)c2cccnc2)c2cc(Nc3ccc(C)nc3C)ccc12 [Example 111, N-(2,6-dimethylpyridin-3-yl)-3-((methylamino)methyl)-1-(pyridin-3-ylsulfonyl)-1H-indol-6-amine hydrochloride]",3210
10,"CNCc1cn(S(=O)(=O)c2cccnc2)c2cc(Nc3ccc(C)nc3F)ccc12 [Example 112, N-(2-fluoro-6-methylpyridin-3-yl)-3-((methylamino)methyl)-1-(pyridin-3-ylsulfonyl)-1H-indol-6-amine hydrochloride]",950
11,"CNCc1cn(S(=O)(=O)c2cccnc2)c2cc(Nc3ccc(C)nc3Cl)ccc12 [Example 113, N-(2-chloro-6-methylpyridin-3-yl)-3-((methylamino)methyl)-1-(pyridin-3-ylsulfonyl)-1H-indol-6-amine hydrochloride]",340
12,"CNCc1cn(S(=O)(=O)c2cccnc2)c2cc(Nc3ccc(C)nc3C(F)(F)F)ccc12 [Example 115, N-(6-methyl-2-(trifluoromethyl)pyridin-3-yl)-3-((methylamino)methyl)-1-(pyridin-3-ylsulfonyl)-1H-indol-6-amine hydrochloride]",1300
13,"CNCc1cn(S(=O)(=O)c2cccnc2)c2cc(Nc3ccc(F)nc3C)ccc12 [Example 116, N-(6-fluoro-2-methylpyridin-3-yl)-3-((methylamino)methyl)-1-(pyridin-3-ylsulfonyl)-1H-indol-6-amine hydrochloride]",1570
14,"CNCc1cn(S(=O)(=O)c2cccnc2)c2cc(Nc3ccc(Cl)nc3C)ccc12 [Example 118, N-(6-chloro-2-methylpyridin-3-yl)-3-((methylamino)methyl)-1-(pyridin-3-ylsulfonyl)-1H-indol-6-amine hydrochloride]",480
15,"CNCc1cn(S(=O)(=O)c2cccnc2)c2cc(Nc3ccc(Cl)nc3Cl)ccc12 [Example 119, N-(2,6-dichloropyridin-3-yl)-3-((methylamino)methyl)-1-(pyridin-3-ylsulfonyl)-1H-indol-6-amine hydrochloride]",480
16,"CNCc1cn(S(=O)(=O)c2cccnc2)c2cc(Nc3ccc(Cl)nc3C(F)(F)F)ccc12 [Example 121, N-(6-chloro-2-(trifluoromethyl)pyridin-3-yl)-3-((methylamino)methyl)-1-(pyridin-3-ylsulfonyl)-1H-indol-6-amine hydrochloride]",440
17,"CNCc1cn(S(=O)(=O)c2cccnc2)c2cc(Nc3ccc(C(F)(F)F)nc3C)ccc12 [Example 124, N-(2-methyl-6-(trifluoromethyl)pyridin-3-yl)-3-((methylamino)methyl)-1-(pyridin-3-ylsulfonyl)-1H-indol-6-amine hydrochloride]",580
18,"CNCc1cn(S(=O)(=O)c2cccnc2)c2cc(Nc3cc(Cl)cnc3C)ccc12 [Example 126, N-(5-chloro-2-methylpyridin-3-yl)-3-((methylamino)methyl)-1-(pyridin-3-ylsulfonyl)-1H-indol-6-amine hydrochloride]",510
19,"CNCc1cn(S(=O)(=O)c2cccnc2)c2cc(Nc3c(C)ccnc3Cl)ccc12 [Example 127, N-(2-chloro-4-methylpyridin-3-yl)-3-((methylamino)methyl)-1-(pyridin-3-ylsulfonyl)-1H-indol-6-amine hydrochloride]",640
20,"CNCc1cn(S(=O)(=O)c2cccnc2)c2cc(Nc3ccncc3Cl)ccc12 [Example 128, N-(3-chloropyridin-4-yl)-3-((methylamino)methyl)-1-(pyridin-3-ylsulfonyl)-1H-indol-6-amine hydrochloride]",1220
21,"CNCc1cn(S(=O)(=O)c2cccnc2)c2cc(Nc3ccncc3C(F)(F)F)ccc12 [Example 129, 3-((methylamino)methyl)-1-(pyridin-3-ylsulfonyl)-N-(3-(trifluoromethyl)pyridin-4-yl)-1H-indol-6-amine hydrochloride]",10200
22,"CNCc1cn(S(=O)(=O)c2cccnc2)c2cc(Nc3ccnc(OC)c3Cl)ccc12 [Example 130, N-(3-chloro-2-methoxypyridin-4-yl)-3-((methylamino)methyl)-1-(pyridin-3-ylsulfonyl)-1H-indol-6-amine hydrochloride]",20000
23,"CNCc1cn(S(=O)(=O)c2cccnc2)c2cc(Nc3ccnc(OC)c3Br)ccc12 [Example 131, N-(3-bromo-2-methoxypyridin-4-yl)-3-((methylamino)methyl)-1-(pyridin-3-ylsulfonyl)-1H-indol-6-amine hydrochloride]",780
24,"CNCc1cn(S(=O)(=O)c2cccnc2)c2cc(Nc3ccnc(Cl)c3Cl)ccc12 [Example 132, N-(2,3-dichloropyridin-4-yl)-3-((methylamino)methyl)-1-(pyridin-3-ylsulfonyl)-1H-indol-6-amine hydrochloride]",730
25,"CNCc1cn(S(=O)(=O)c2cccnc2)c2cc(Nc3c(F)cnc(F)c3F)ccc12 [Example 134, 3-((methylamino)methyl)-1-(pyridin-3-ylsulfonyl)-N-(2,3,5-trifluoropyridin-4-yl)-1H-indol-6-amine hydrochloride]",2050
